Legend:
[1] = system: mouse podocytes; experiment: MTT cell proliferation assay, mouse podocytes; format: cell-based; conditions: at higher concentrations of ATRA than required with rat podocytes
Method: (§1) Experiments were also performed on podocytes derived from C57/bl mice. Glomeruli were sieved and prepared as previously described. […] 61:40-50. Podocytes were grown on collagen 1 coated plates with MGEC-media containing 5% fetal bovine serum (FBS: Summit biotechnology, Ft. Collins, Colo., USA), penicillin (100 U/ml), streptomycin (100 μg/ml), and glutamine (2 mmol/L; all Irvine Scientific, Santa Ana, Calif., USA) at 37° C. in 95% air/5% CO2. Podocytes were identified by previously described criteria (Shankland et al. (1999) supra) and by confirming the presence of podocyte specific proteins—including WT-1, nephrin, podocin, and ezrin—by immunostaining.
(§2) Exposure ofpodocvtes to ATRA. Rat podocytes, mouse podocytes, and growth permissive HSMP were plated at a concentration of 15,000 cell/cm^2 in standard media and allowed to adhere overnight.

[2] = system: heat sensitive mouse podocytes; experiment: MTT cell proliferation assay, heat sensitive mouse podocytes (HSMP), growth permissive; format: cell-based; conditions: heat sensitive mouse podocytes under growth permissive conditions; at higher concentrations than rat podocytes
Method: as §2

[3] = system: cultured rat podocytes; experiment: Cell morphology by scanning electron microscopy, cultured rat podocytes; format: cell-based
Method: as §2
Cell morphology was carefully examined under light microscopy on an inverted scope. Cellular morphology was also examined by scanning electron microscopy on adherent cells fixed in half-strength Karnovsky's solution.

[4] = system: primary mouse podocytes; experiment: Western blot analysis of nephrin and podocin, primary mouse podocytes; format: cell-based; conditions: primary mouse cultures, FIG. 2
Method: as §1, §2

[5] = system: C57BL6 mice with anti-glomerular antibody-mediated podocyte injury; experiment: Anti-glomerular antibody model of podocyte injury: renal function (proteinuria, BUN); format: in vivo, mouse; conditions: for BUN increase: anti-glomerular disease; for proteinuria vs control (vehicle): mice with anti-glomerular disease, ATRA 16.6 mg/kg IP daily, P<0.001, FIG. 3
Method: An antibody-mediated model of podocyte injury was induced in C57BL6 mice with a sheep anti-glomerular antibody (two doses of 0.3 ml/20 gm body weight) over two consecutive days. Kim et al. (1999) Kidney Int 55:2349-2361; and Ophascharoensuk et al. (1998) Kidney Int 54:416-425. After the induction of the anti-glomerular model, but before the development of proteinuria, mice were then divided into an experimental group that received daily injections of ATRA 16.6 mg/kg (IP), and a control group that received vehicle (corn oil). Experimental and control animals were studied on day 7 and 14 (n=5 per group/time point). The podocyte specific proteins WT-1, nephrin, podocin, synaptopodin, were measured by immunostaining at each time point, as was the proliferation marker, PCNA (see above). Using proliferating cell nuclear antigen (PCNA) as a marker of proliferation and WT-1 as a marker for podocytes, the level of podocyte proliferation was determined.
Renal Function Assessment. Control and experimental mice were placed in metabolic urine collection cages in order to obtain a timed collection for urinalysis. Urine was analyzed for protein content utilizing the sulphosalicylic acid (SSA) method as previously described. Shankland et al. (1996) Kidney Int. 50:116-124. Serum was also collected from mice in order to evaluate blood urea nitrogen (BUN) levels. The BUN kit (Sigma Chemicals, St. Louis, Mo., USA) is based on the direct interaction of urea with diacetyl monomoxime […]. The absorbance obtained from serum samples is compared with a standard curve of increasing concentrations of urea nitrogen standards.

[6] = system: conditionally immortalized wild-type podocytes; experiment: MTT proliferation assay, wild-type (WT) podocytes under growth restriction; format: cell-based, mouse
Method: To test the hypothesis that ATRA altered the proliferative capacity of podocytes in HIV transgenic mice, conditionally immortalized podocytes harvested from transgenic HIV Tg-26 (Tg) and conditionally immortalized podocytes from transgene free or wild-type podocytes (controls) were compared in a series of studies. Both transgenic and wild-type cell lines were initially plated in “growth permissive” conditions (33° C.) and grown in 10 ml of “standard media,” consisting of 90% RPMI 1640 (Invitrogen, Grand Island, N.Y.), 10% fetal bovine serum (Hyclone, Logan, Utah), 1% L-glutamine (Irvine Scientific, Santa Ana, Calif.), 1% pen-strep (Biosource, Rockville, Md.), 1% sodium bicarbonate (Sigma-Aldrich, St Louis, Mo.) and 1% HEPES buffer (Sigma-Aldrich, Santa, Ana, Calif.), and 1% sodium pyruvate (Irvine Scientific, Santa Ana, Calif.). For growth promotion, 5 μl of mouse gamma interferon were added to 10 ml of media. […]
Each study group was assessed for proliferation (see below) at three different time points as follows: (i) day “1” of growth restriction which was defined as 24 h after plating cells into growth restrictive conditions; (ii) day 7 of growth restrictive conditions. […]
Cell proliferation was assessed by the MTT (Promega, Madison, Wis.) assay on days 1, 7, and 14 of growth restriction. […]

[7] = system: transgenic podocytes; experiment: Direct visualization (sequential photographs) of plated podocytes; format: cell-based, mouse; conditions: addition of ATRA
Method: Cellular proliferation was also assessed through direct visualization of 10 cm plated cells at d 1, 2, 4, 6 and 8 growth restriction. Proliferation was assessed by the number of cells seen within a small circle marked on the plate. A total of four circles were marked and observed per plate. The circles were numbered #1-4 and photographed at the above time points. One exemplary circle was chosen per plate and followed through all time points. The four groups were compared at all time points.

[8] = system: rat podocytes; experiment: MTT cell proliferation assay, rat podocytes

Q: With `CC1=C(/C=C/C(C)=C/C=C/C(C)=C/C(=O)O)C(C)(C)CCC1` [ATRA, all-trans retinoic acid] as the molecule, how does the MTT absorbance [1] read?
A: significantly reduced MTT absorbance

Q: What about the MTT absorbance [2] of the same molecule?
A: significantly reduced MTT absorbance

Q: What about the “process formation (scanning electron microscopy)” value ([3]; 1 μM ATRA) of the same molecule?
A: resulted in the presence of processes

Q: What about the “process formation (scanning electron microscopy)” value ([3]; Ten 1 μM ATRA) of the same molecule?
A: marked increase in the number and length of processes

Q: And the “nephrin protein level (Western blot)” value ([4]; 1 μM ATRA)?
A: increased the protein levels

Q: What about the “podocin protein level (Western blot)” value ([4]; 1 μM ATRA) of the same molecule?
A: increased the protein levels

Q: And the “nephrin protein level (Western blot)” value ([4]; 5 μM ATRA)?
A: increased the protein levels

Q: What about the “podocin protein level (Western blot)” value ([4]; 5 μM ATRA) of the same molecule?
A: increased the protein levels

Q: And the BUN increase ([5]; day 7)?
A: not altered

Q: What about the BUN increase ([5]; day 14) of the same molecule?
A: not altered

Q: What about the “proteinuria vs control (vehicle)” value ([5]; day 7) of the same molecule?
A: significantly reduced proteinuria

Q: And the “proteinuria vs control (vehicle)” value ([5]; day 14)?
A: significantly reduced proteinuria

Q: What about the “proliferation of WT podocytes (MTT), exposed to ATRA vs without ATRA” value [6] of the same molecule?
A: no measurable difference

Q: And the “proliferation of transgenic podocytes (sequential photographs, 10 cm culture dishes)” value [7]?
A: attenuated

Q: And the “rat podocyte proliferation (viable cell number by MTT assay)” value ([8]; 1 μM, 5 μM, 10 μM, 50 μM, 200 μM ATRA, FIG. 1)?
A: reduced rat podocyte proliferation in a concentration-dependent fashion

Q: And the “MTT absorbance compared to control cells” value ([8]; rat podocytes, beginning at one μM, P<0.001)?
A: significantly reduced MTT absorbance
